Source: ChEMBL document CHEMBL1135002, “Optimization of a pyrazolo[1,5-a]pyrimidine class of KDR kinase inhibitors: improvements in physical properties enhance cellular activity and pharmacokinetics” (Bioorg Med Chem Lett, 2002)

Assays:
[1] = Partition coefficient (logP); format: physicochemical; settings: octanol/water
[2] = biological target: Vascular endothelial growth factor receptor 2 (Homo sapiens, UniProt P35968)
Description: Inhibition of Vascular endothelial growth factor receptor 2

[3] = The pharmacokinetic parameter half-life period in vivo in rats; format: ADME, organism-based; settings: rat
[4] = The pharmacokinetic parameter plasma clearance in vivo in rats; format: ADME, organism-based; settings: rat, read-out: CI
[5] = The pharmacokinetic parameter volume of distribution in vivo in rats; format: ADME, organism-based; settings: rat, read-out: Vdss
[6] = biological target: Vascular endothelial growth factor receptor (Homo sapiens, UniProt P17948+P35916+P35968); settings: endothelial cell
Description: Inhibition of VEGF-stimulated mitogenesis in endothelial cells

[7] = Bioavailability in rat; format: ADME, organism-based; settings: in vivo

Vascular endothelial growth factor receptor 2, sequence (P35968 whole entry): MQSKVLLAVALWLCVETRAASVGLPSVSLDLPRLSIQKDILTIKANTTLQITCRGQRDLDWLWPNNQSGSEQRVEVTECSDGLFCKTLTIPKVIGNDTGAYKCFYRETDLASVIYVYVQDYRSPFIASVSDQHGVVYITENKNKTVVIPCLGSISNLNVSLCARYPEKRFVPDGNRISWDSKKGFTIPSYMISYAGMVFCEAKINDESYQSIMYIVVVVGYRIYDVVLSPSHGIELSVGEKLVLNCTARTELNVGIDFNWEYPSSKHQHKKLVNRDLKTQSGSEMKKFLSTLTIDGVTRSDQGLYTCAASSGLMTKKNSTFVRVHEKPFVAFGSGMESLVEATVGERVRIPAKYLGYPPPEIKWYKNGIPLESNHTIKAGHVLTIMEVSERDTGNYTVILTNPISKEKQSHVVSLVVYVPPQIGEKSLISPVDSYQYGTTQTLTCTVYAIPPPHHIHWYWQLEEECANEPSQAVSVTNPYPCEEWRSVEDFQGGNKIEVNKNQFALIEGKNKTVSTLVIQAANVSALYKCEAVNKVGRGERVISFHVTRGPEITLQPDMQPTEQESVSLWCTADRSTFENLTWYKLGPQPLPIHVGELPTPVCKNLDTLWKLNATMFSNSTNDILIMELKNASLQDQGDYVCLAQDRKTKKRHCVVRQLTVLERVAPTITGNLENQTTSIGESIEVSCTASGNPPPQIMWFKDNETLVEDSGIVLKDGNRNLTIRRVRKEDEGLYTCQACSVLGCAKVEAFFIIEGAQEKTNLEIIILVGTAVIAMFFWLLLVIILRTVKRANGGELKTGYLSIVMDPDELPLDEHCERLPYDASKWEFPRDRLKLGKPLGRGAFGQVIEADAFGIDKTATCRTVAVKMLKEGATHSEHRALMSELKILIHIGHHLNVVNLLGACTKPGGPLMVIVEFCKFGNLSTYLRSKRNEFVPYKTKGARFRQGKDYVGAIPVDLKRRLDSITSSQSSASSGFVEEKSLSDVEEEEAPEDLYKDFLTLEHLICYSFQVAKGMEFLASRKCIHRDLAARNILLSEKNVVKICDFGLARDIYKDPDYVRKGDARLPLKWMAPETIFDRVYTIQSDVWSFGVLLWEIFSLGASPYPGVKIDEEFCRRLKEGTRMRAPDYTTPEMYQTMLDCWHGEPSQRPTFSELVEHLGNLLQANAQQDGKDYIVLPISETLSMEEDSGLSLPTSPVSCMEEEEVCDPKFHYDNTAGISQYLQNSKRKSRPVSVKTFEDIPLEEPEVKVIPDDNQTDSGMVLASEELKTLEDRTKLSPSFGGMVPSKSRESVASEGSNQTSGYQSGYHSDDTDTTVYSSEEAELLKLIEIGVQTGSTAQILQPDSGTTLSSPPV

SMILES: O=c1cc(-c2cnc3c(-c4ccccc4)cnn3c2)ccn1CCCN1CCCCC1
- logP [1]: 2.4

SMILES: COc1ccc(-c2cnc3c(-c4ccsc4)cnn3c2)cc1
- logP [1]: > 4

SMILES: c1cncc(-c2cnn3cc(-c4ccc(OCCN5CCCCC5)cc4)cnc23)c1
- IC50 [2]: 20 nM
- half-life [3]: 3.3 h
- clearance [4]: 23 mL/min/kg
- Vd [5]: 6 L/kg
- IC50 [6]: 29 nM
- bioavailability [7]: 42%

SMILES: c1ccc(-c2cnn3cc(-c4ccc(OCCN5CCOCC5)cc4)cnc23)cc1
- IC50 [2]: 9 nM
- IC50 [6]: 32 nM

SMILES: c1cc(-c2cnn3cc(-c4ccc(OCCN5CCOCC5)cc4)cnc23)ccn1
- IC50 [6]: 31 nM

SMILES: COc1ccc(-c2cnc3c(-c4ccncc4)cnn3c2)cc1
- IC50 [6]: 150 nM

SMILES: CN1CCN(CCCn2ccc(-c3cnc4c(-c5ccccc5)cnn4c3)cc2=O)CC1
- logP [1]: 2

SMILES: CN1CCN(CCCn2ccc(-c3cnc4c(-c5ccsc5)cnn4c3)cc2=O)CC1
- half-life [3]: 3.4 h
- Vd [5]: 7.9 L/kg
- bioavailability [7]: 56%
- logP [1]: 1.6

SMILES: c1cc(-c2cnn3cc(-c4ccc(OCCN5CCCCC5)cc4)cnc23)cs1 [L-21649]
- half-life [3]: 5.1 h
- Vd [5]: 16 L/kg
- bioavailability [7]: 18%
- logP [1]: > 4
